Assay results as given in patent publication US20110172296A1, “MODULATION OF TRANSFORMING GROWTH FACTOR-BETA 1 EXPRESSION” (priority 2010, published 2011).
Values joined by “and” are separate entries in the source; they are usually repeats but may differ in a detail not shown here. Equal values may be shown once. In the oligonucleotide strings, read from the 5' end, every base follows the letter of its sugar. An asterisk marks phosphorothioate; unmarked linkages are phosphodiester. Other units and linkages are bracketed, terminal groups are in braces. A string of capitals states the bases alone. e = 2'-O-(2-methoxyethyl) (MOE); [5mC] = 5-methylcytosine; d = 2'-deoxy (DNA)

Test system: human TGF-beta1 mRNA
Test: Antisense inhibition of human TGF-beta1 mRNA in HuVEC cells, single 10 nM dose, Lipofectamine 2000 (Example 2)
Type: cell-based
Conditions: for % inhibition: 10 nM oligonucleotide, HuVEC, relative to untreated control cells, gapmers targeted to SEQ ID NO: 1; for inhibition of a TGF-beta1 mRNA: threshold lists of Oligo IDs, 10 nM
Protocol: Antisense oligonucleotides targeted to a TGF-beta1 nucleic acid were tested for their effects on TGF-beta1 mRNA in vitro. Cultured HuVEC cells at a density of 5,000 cells per well were transfected using Lipofectamine™ 2000 reagent with 10 nM antisense oligonucleotide for 4 hours. After a recovery period of approximately 24 hours, RNA was isolated from the cells and TGF-beta1 mRNA levels were measured by quantitative real-time PCR. TGF-beta1 mRNA levels were adjusted according to total RNA content, as measured by RIBOGREEN®. Results are presented as percent inhibition of TGF-beta1, relative to untreated control cells.
The chimeric antisense oligonucleotides in Tables 1 and 2 were designed as 2-13-5 MOE gapmers. Antisense molecules with this motif targeting TGF-beta1 are unique, and represent a novel chemical structure for an ASO directed against this target. The gapmers are 20 nucleotides in length, wherein the central gap segments are comprised of thirteen 2′-deoxynucleotides and are flanked on the 5′ side by wings comprising two nucleotides each and on the 3′ side by wings comprising five nucleotides each. Each nucleotide in the 5′ wing segment and each nucleotide in the 3′ wing segment has a 2′-MOE modification. The internucleoside linkages throughout each gapmer are phosphorothioate (P═S) linkages. All cytosine residues throughout each gapmer are 5-methylcytosines. “Target start site” indicates the 5′-most nucleotide to which the gapmer is targeted. “Target stop site” indicates the 3′-most nucleotide to which the gapmer is targeted. Each gapmer listed in Table 1 is targeted to SEQ ID NO: 1 (GENBANK Accession No. NM_000660.3). Each gapmer listed in Table 2 is targeted to SEQ ID NO: 2 (GENBANK Accession No. NT 011109.15 truncated from 14103000 to […]).

Substance | % inhibition [%] | inhibition of a TGF-beta1 mRNA
413967 (antisense eG*eA*dT*dG*dG*d[5mC]*d[5mC]*d[5mC]*dA*dG*dG*dG*d[5mC]*dG*d[5mC]*eG*eA*eA*eG*eG) [compound 413967] | 64 | 60%
413968 (antisense eG*eA*dG*dA*dT*dG*dG*d[5mC]*d[5mC]*d[5mC]*dA*dG*dG*dG*d[5mC]*eG*e[5mC]*eG*eA*eA) [compound 413968] | 55 | 
413969 (antisense e[5mC]*eG*dA*d[5mC]*dT*d[5mC]*d[5mC]*dT*dT*d[5mC]*d[5mC]*dT*d[5mC]*d[5mC]*dG*e[5mC]*eT*e[5mC]*e[5mC]*eG) [compound 413969] | 53 | 
413971 (antisense eG*eG*d[5mC]*d[5mC]*dT*d[5mC]*dA*dG*dG*d[5mC]*dT*dG*d[5mC]*dT*d[5mC]*e[5mC]*eT*e[5mC]*eG*eG) [compound 413971] | 78 | 60% and 65% and 70% and 75%
413972 (antisense e[5mC]*eT*d[5mC]*dG*dT*d[5mC]*d[5mC]*d[5mC]*dT*d[5mC]*d[5mC]*dT*d[5mC]*d[5mC]*d[5mC]*eG*e[5mC]*eT*e[5mC]*e[5mC]) [compound 413972] | 61 | 60%
413973 (antisense e[5mC]*eA*dA*d[5mC]*dG*dG*dA*dA*dA*dA*dG*dT*d[5mC]*dT*d[5mC]*eA*eA*eA*eA*eG) [compound 413973] | 25 | 
413974 (antisense eG*eG*d[5mC]*dA*dA*d[5mC]*dG*dG*dA*dA*dA*dA*dG*dT*d[5mC]*eT*e[5mC]*eA*eA*eA) [compound 413974] | 69 | 60% and 65%
413975 (antisense eG*e[5mC]*dG*dG*d[5mC]*dA*dA*d[5mC]*dG*dG*dA*dA*dA*dA*dG*eT*e[5mC]*eT*e[5mC]*eA) [compound 413975] | 73 | 60% and 65% and 70%
413976 (antisense e[5mC]*eA*dG*d[5mC]*dG*dG*d[5mC]*dA*dA*d[5mC]*dG*dG*dA*dA*dA*eA*eG*eT*e[5mC]*eT) [compound 413976] | 72 | 60% and 65% and 70%
413977 (antisense e[5mC]*e[5mC]*d[5mC]*dA*dG*d[5mC]*dG*dG*d[5mC]*dA*dA*d[5mC]*dG*dG*dA*eA*eA*eA*eG*eT) [compound 413977] | 57 | 
413978 (antisense e[5mC]*eT*d[5mC]*d[5mC]*d[5mC]*dA*dG*d[5mC]*dG*dG*d[5mC]*dA*dA*d[5mC]*dG*eG*eA*eA*eA*eA) [compound 413978] | 67 | 60% and 65%
413980 (antisense e[5mC]*e[5mC]*dG*dG*d[5mC]*dT*d[5mC]*d[5mC]*d[5mC]*dA*dG*d[5mC]*dG*dG*d[5mC]*eA*eA*e[5mC]*eG*eG) [compound 413980] | 74 | 60% and 65% and 70%
413981 (antisense e[5mC]*eT*d[5mC]*d[5mC]*dG*dG*d[5mC]*dT*d[5mC]*d[5mC]*d[5mC]*dA*dG*d[5mC]*dG*eG*e[5mC]*eA*eA*e[5mC]) [compound 413981] | 71 | 60% and 65% and 70%
413983 (antisense eG*e[5mC]*dG*d[5mC]*d[5mC]*dT*d[5mC]*d[5mC]*dG*dG*d[5mC]*dT*d[5mC]*d[5mC]*d[5mC]*eA*eG*e[5mC]*eG*eG) [compound 413983] | 78 | 60% and 65% and 70% and 75%
413984 (antisense e[5mC]*e[5mC]*dG*d[5mC]*dG*d[5mC]*d[5mC]*dT*d[5mC]*d[5mC]*dG*dG*d[5mC]*dT*d[5mC]*e[5mC]*e[5mC]*eA*eG*e[5mC]) [compound 413984] | 71 | 60% and 65% and 70%
413985 (antisense e[5mC]*e[5mC]*d[5mC]*d[5mC]*dG*d[5mC]*dG*d[5mC]*d[5mC]*dT*d[5mC]*d[5mC]*dG*dG*d[5mC]*eT*e[5mC]*e[5mC]*e[5mC]*eA) [compound 413985] | 66 | 60% and 65%
413986 (antisense eG*eT*d[5mC]*d[5mC]*d[5mC]*d[5mC]*dG*d[5mC]*dG*d[5mC]*d[5mC]*dT*d[5mC]*d[5mC]*dG*eG*e[5mC]*eT*e[5mC]*e[5mC]) [compound 413986] | 69 | 60% and 65%
413987 (antisense eA*eG*dG*dT*d[5mC]*d[5mC]*d[5mC]*d[5mC]*dG*d[5mC]*dG*d[5mC]*d[5mC]*dT*d[5mC]*e[5mC]*eG*eG*e[5mC]*eT) [compound 413987] | 71 | 60% and 65% and 70%

Substance | % inhibition [%] | inhibition of a TGF-beta1 mRNA
413988 (antisense eA*eA*dG*dT*d[5mC]*d[5mC]*dT*dG*d[5mC]*d[5mC]*dT*d[5mC]*d[5mC]*dT*d[5mC]*eG*e[5mC]*eG*eG*eG) [compound 413988] | 63 | 60%
413989 (antisense eG*eG*d[5mC]*dA*dA*dA*dG*dG*dG*dA*dG*dG*d[5mC]*dG*dG*eT*e[5mC]*eT*eG*eG) [compound 413989] | 41 | 
413990 (antisense eG*e[5mC]*dG*dG*d[5mC]*dA*dA*dA*dG*dG*dG*dA*dG*dG*d[5mC]*eG*eG*eT*e[5mC]*eT) [compound 413990] | 59 | 
413991 (antisense e[5mC]*eG*dG*d[5mC]*dG*dG*d[5mC]*dA*dA*dA*dG*dG*dG*dA*dG*eG*e[5mC]*eG*eG*eT) [compound 413991] | 69 | 60% and 65%
413992 (antisense e[5mC]*e[5mC]*d[5mC]*dG*dG*d[5mC]*dG*dG*d[5mC]*dA*dA*dA*dG*dG*dG*eA*eG*eG*e[5mC]*eG) [compound 413992] | 60 | 60%
413993 (antisense eT*e[5mC]*d[5mC]*d[5mC]*d[5mC]*dG*dG*d[5mC]*dG*dG*d[5mC]*dA*dA*dA*dG*eG*eG*eA*eG*eG) [compound 413993] | 52 | 
413994 (antisense e[5mC]*eG*dT*d[5mC]*d[5mC]*d[5mC]*d[5mC]*dG*dG*d[5mC]*dG*dG*d[5mC]*dA*dA*eA*eG*eG*eG*eA) [compound 413994] | 67 | 60% and 65%
413995 (antisense e[5mC]*e[5mC]*d[5mC]*dG*dA*dG*dG*dG*d[5mC]*dT*dG*dG*dT*d[5mC]*d[5mC]*eG*eG*eA*eA*eT) [compound 413995] | 72 | 60% and 65% and 70%
413996 (antisense eA*eA*dG*dT*d[5mC]*dT*dT*dT*dG*d[5mC]*dG*dG*dG*dA*dG*eG*e[5mC]*e[5mC]*eG*eG) [compound 413996] | 51 | 
413997 (antisense eA*eA*dA*dA*dG*dT*d[5mC]*dT*dT*dT*dG*d[5mC]*dG*dG*dG*eA*eG*eG*e[5mC]*e[5mC]) [compound 413997] | 41 | 
413998 (antisense eG*eG*dA*dA*dA*dA*dG*dT*d[5mC]*dT*dT*dT*dG*d[5mC]*dG*eG*eG*eA*eG*eG) [compound 413998] | 13 | 
413999 (antisense eG*eG*d[5mC]*dT*d[5mC]*dA*dG*dG*dA*dG*dA*d[5mC]*dA*dG*dG*e[5mC]*e[5mC]*eG*eG*eG) [compound 413999] | 72 | 60% and 65% and 70%
414000 (antisense eA*eA*dG*dG*dG*dT*d[5mC]*dT*dA*dG*dG*dA*dT*dG*d[5mC]*eG*e[5mC]*eG*eG*eG) [compound 414000] | 75 | 60% and 65% and 70% and 75%
414001 (antisense e[5mC]*eA*dG*dG*dT*d[5mC]*dG*dG*dA*dG*dA*dG*dA*dG*dA*eT*e[5mC]*e[5mC]*eG*eT) [compound 414001] | 78 | 60% and 65% and 70% and 75%
414002 (antisense eG*eG*dT*dG*dG*dG*dT*dG*dG*dT*d[5mC]*dT*dT*dG*dA*eA*eT*eA*eG*eG) [compound 414002] | 80 | 60% and 65% and 70% and 75% and 80%
414003 (antisense eA*eA*dG*dG*dT*dG*dG*dG*dT*dG*dG*dT*d[5mC]*dT*dT*eG*eA*eA*eT*eA) [compound 414003] | 67 | 60% and 65%
414004 (antisense eA*eG*dA*dA*dG*dG*dT*dG*dG*dG*dT*dG*dG*dT*d[5mC]*eT*eT*eG*eA*eA) [compound 414004] | 70 | 60% and 65% and 70%
414005 (antisense e[5mC]*e[5mC]*dA*dG*dA*dA*dG*dG*dT*dG*dG*dG*dT*dG*dG*eT*e[5mC]*eT*eT*eG) [compound 414005] | 77 | 60% and 65% and 70% and 75%
